pIC50: −log10 of the molar value.
Legend:
[1] = system: triple negative breast cancer cell line MDA-MB-468; assay: Cell-based IC50 assay, adherent cells, MDA-MB-468; conditions: Homo sapiens, 72 hours, CellTiter 96 Aqueous One, metabolically active cells decreased by 50%
Method: (§1) In one embodiment, the IC50s of the compounds provided herein were determined in cell-based assays using adherent cells. In one embodiment, the activity of the compounds provided herein were determined in a cell-based assay using the triple negative breast cancer cell line MDA-MB-468. In one embodiment, the activity of the compounds provided herein were determined in a cell-based assay using the triple negative breast cancer cell line MDA-MB-231. In one embodiment, the activity of the compounds provided herein were determined in a cell-based assay using the triple negative breast cancer cell line 4T1.
(§2) In one embodiment, the cell-based assay may be carried out as provided herein. On day 0, cells were seeded at 20,000 cells per well in 100 μL of media into individual wells of a 96-well tissue culture plate. The next day, compounds were diluted to twice the desired final concentration and added in 100 μL of media for a final volume of 200 μL. Standard solutions for each compound were prepared at 1000× concentration in DMSO. The highest concentration was […]. Serial 1:1 dilutions were made from there for a 6- or 9-point curve (e.g., 20 mM, 10 mM, 5 mM, etc). Compounds were then diluted 1:500 in media, and 100 μL of the resulting solution was added to each well for a final dilution of 1:1000. Each concentration of compound was tested in triplicate. Cells were incubated at 37° C. with 5% CO2. After 72 hours, 20 μL of CellTiter 96 Aqueous One Solution Cell Proliferation Assay (Promega) was added to each well. Cells were placed back in the incubator, and the absorbance at 490 nm was read after 2-3 hours. The concentration of compound that decreased the number of metabolically active cells by 50% was determined and reported as the IC50. “Percent Viability” was determined by subtracting the average background value (media only) and expressed as a ratio to the average value obtained from cells treated with only DMSO.
The IC50s of the compounds provided herein and some reference compounds were determined in cell-based assay using triple negative breast cancer cell line MDA-MB-468.

[2] = system: triple negative breast cancer cell line MDA-MB-231; assay: Cell-based IC50 assay, adherent cells, MDA-MB-231; conditions: Homo sapiens, 72 hours, CellTiter 96 Aqueous One
Method: as §1, §2

[3] = system: triple negative breast cancer cell line 4T1; assay: Cell-based IC50 assay, adherent cells, 4T1; conditions: 72 hours, CellTiter 96 Aqueous One
Method: as §1
In one embodiment, the cell-based assay may be carried out as provided herein. On day 0, cells were seeded at 20,000 cells per well in 100 μL of media into individual wells of a 96-well tissue culture plate. The next day, compounds were diluted to twice the desired final concentration and added in 100 μL of media for a final volume of 200 μL. Standard solutions for each compound were prepared at 1000× concentration in DMSO. The highest concentration was 30 mM. […] Cells were placed back in the incubator, and the absorbance at 490 nm was read after 2-3 hours. […] “Percent Viability” was determined by subtracting the average background value (media only) and expressed as a ratio to the average value obtained from cells treated with only DMSO.

[4] = PK study and oral bioavailability, mouse; assay type: in vivo; conditions: plasma 0 to 6 h
[5] = PK study and oral bioavailability, rat; assay type: in vivo; conditions: plasma 0 to 6 h
[6] = system: m7GpppN-capped luciferase mRNA reporter; assay: In vitro HeLa cell extract translation system, translation inhibition; assay type: biochemical; conditions: concentration not given
Method: In one embodiment, the compounds provided herein were assayed for translation inhibition activity using an in vitro HeLa cell extract translation system with an m7GpppN-capped luciferase mRNA reporter.

[7] = IV 5 mg/kg, read-out: IV Administration (5 mg/kg) C0
[8] = IV 5 mg/kg, read-out: IV Administration (5 mg/kg) T½ (converted)
[9] = PO 25 mg/kg, read-out: PO Administration (25 mg/kg) C0

Compound | pIC50 [1] | other results
O=S(=O)(Nc1cc(C(F)(F)F)cc(C(F)(F)F)c1)c1cc(C(F)(F)F)cc(C(F)(F)F)c1 [Reference compound 1] | < 4.70 | 
N#Cc1ccc(NS(=O)(=O)c2cc(C(F)(F)F)cc(C(F)(F)F)c2)cc1Cl [Reference compound 3] | < 4.70 | 
Cc1cc(C)c(S(=O)(=O)Nc2cc(C(F)(F)F)cc(C(F)(F)F)c2)c(C)c1 [Reference compound 4] | 4.77 | 
Cc1c(C)c(C)c(S(=O)(=O)Nc2cc(C(F)(F)F)cc(C(F)(F)F)c2)c(C)c1C [Reference compound 5] | < 4.70 | 
COc1ccc(OC)c(S(=O)(=O)Nc2cc(C(F)(F)F)cc(C(F)(F)F)c2)c1 [Reference compound 6] | < 4.70 | 
Cc1ccc(C)c(NS(=O)(=O)c2c(C(C)C)cc(C(C)C)cc2C(C)C)c1 [Reference compound 8] | < 4.70 | 
CC(C)c1cc(C(C)C)c(S(=O)(=O)Nc2cccc(F)c2)c(C(C)C)c1 [Reference compound 9] | < 4.70 | 
Cc1cc(C)c(NS(=O)(=O)c2c(C(C)C)cc(C(C)C)cc2C(C)C)c(C)c1 [Reference compound 10] | < 4.70 | 
CC(C)c1cc(C(C)C)c(S(=O)(=O)Nc2ccccc2F)c(C(C)C)c1 [Reference compound 11] | < 4.70 | 
Cc1c(Cl)cccc1NS(=O)(=O)c1c(C(C)C)cc(C(C)C)cc1C(C)C [Reference compound 12] | 4.72 | 
CC(=O)Nc1ccc(S(=O)(=O)Nc2cc(C(F)(F)F)cc(C(F)(F)F)c2)cc1 [Reference compound 13] | < 4.70 | 
C[C@@H]1C[C@@H]([C@H](O)CC2CC(=O)NC(=O)C2)C(=O)[C@@H](C)C1 [cycloheximide, reference compound] |  | inhibition of luciferase activity (comparator) [6]: 99.3%

The remaining compounds from weak to strong by pIC50 [1], led by results:

pIC50 [1] | Compound | other results
4.85 | CC(C)c1cc(C(C)C)c(S(=O)(=O)Nc2ccc(Br)cc2)c(C(C)C)c1 [Reference compound 7] | 
4.92 | CC(C)c1cc(C(C)C)c(NS(=O)(=O)c2cc(C(F)(F)F)cc(C(F)(F)F)c2)c(C(C)C)c1 [Compound 4, 3,5-Bis(trifluoromethyl)-N-(2,4,6-triisopropylphenyl)benzenesulfonamide] | 
5.00 | O=S(=O)(Nc1cc(C(F)(F)F)cc(C(F)(F)F)c1)c1c(Cl)cccc1Cl [Reference compound 2] | 
5.15 | Cc1cc(C(C)(C)C)cc(C)c1S(=O)(=O)Nc1cc(C(F)(F)F)cc(C(F)(F)F)c1 [Compound 6, N-[3,5-Bis(trifluoromethyl)phenyl]-4-tert-butyl-2,6-dimethyl-benzenesulfonamide] | 
5.30 | CC(C)c1cc(C(C)C)c(S(=O)(=O)Nc2cc(C(F)(F)F)cc(C(F)(F)F)c2Br)c(C(C)C)c1 [Compound 5, N-[2-Bromo-3,5-bis(trifluoromethyl)phenyl]-2,4,6-triisopropyl-benzenesulfonamide] | 
5.30 | Cc1cc(C(C)(C)C)cc(C)c1S(=O)(=O)Nc1cc(C(F)(F)F)cc(C(F)(F)F)c1C [Compound 9, 4-Tert-butyl-2,6-dimethyl-N-[2-methyl-3,5-bis(trifluoromethyl)phenyl]benzenesulfonamide] | 
5.35 | CC(C)c1cc(C(C)C)c(S(=O)(=O)Nc2cc(C(F)(F)F)cc(C(F)(F)F)c2Cl)c(C(C)C)c1 [Compound 3, N-[2-Chloro-3,5-bis(trifluoromethyl)phenyl]-2,4,6-triisopropyl-benzenesulfonamide] | pIC50 [2]: 5.52
5.52 | Cc1cc(C(C)(C)C)cc(C)c1S(=O)(=O)Nc1cc(C(F)(F)F)cc(C(F)(F)F)c1Cl [Compound 10, 4-Tert-butyl-N-[2-chloro-3,5-bis(trifluoromethyl)phenyl]-2,6-dimethyl-benzenesulfonamide] | 
5.70 | Cc1c(NS(=O)(=O)c2c(C(C)C)cc(C(C)C)cc2C(C)C)cc(C(F)(F)F)cc1C(F)(F)F [Compound 2, N-[2-Methyl-3,5-bis(trifluoromethyl)phenyl]-2,4,6-triisopropyl-benzenesulfonamide] | pIC50 [2]: 5.22; pIC50 [3]: 5.30; C0 [4, 7]: 53700 ng/mL; half-life [4, 8]: 2.9 h; C0 [4, 9]: 3610 ng/mL; half-life ([4]; PO 25 mg/kg, read-out: PO Administration (25 mg/kg) T½ (converted)): 2.4 h; C0 [5, 7]: 68900 ng/mL; half-life [5, 8]: 1.6 h; C0 [5, 9]: 27600 ng/mL; half-life ([5]; PO 25 mg/kg, read-out: PO Administration (25 mg/kg) T½): > 6 h
5.70 | CCc1cccc(CC)c1S(=O)(=O)Nc1cc(C(F)(F)F)cc(C(F)(F)F)c1C [Compound 7, 2,6-Diethyl-N-[2-methyl-3,5-bis(trifluoromethyl)phenyl]benzenesulfonamide] | 
5.82 | CCc1cccc(CC)c1S(=O)(=O)Nc1cc(C(F)(F)F)cc(C(F)(F)F)c1 [Compound 8, N-[3,5-Bis(trifluoromethyl)phenyl]-2,6-diethyl-benzenesulfonamide] | 

Reference: patent US11713293B2, “Substituted biaryl sulfonamides and the use thereof” (NovoMedix, LLC, priority 2012, dated 2023)
